# Experimental data from paper PMC6934184, “Selective DNA-PKcs inhibition extends the therapeutic index of localized radiotherapy and chemotherapy” (The Journal of Clinical Investigation, 2019).
# System: SJSA-1
# Assay: clonogenic survival with etoposide
# Assay type: cell-based, human
# Details: NU5455 1 μM, 24 hours
# Procedure: Cell line γH2AX and 53BP1 foci immunofluorescence and quantitation
# Cells grown on coverslips or in 96-well plates were treated with 1 or 5 µM NU5455 or DMSO 1 hour prior to irradiation (0, 2.5 or 10 Gy) using an RS 320 X-ray Research System (Gulmay Medical). At set timepoints (15 or 30 minutes, or 1, 4, 5, 6, or 24 hours post-irradiation), cells were washed and fixed in methanol or 3% paraformaldehyde (PFA). […] In A549 and Calu-6, cells were Hoechst stained (5 µg/ml), and the average numbers of γH2AX and 53BP1 foci per cell were quantified from 400 nuclei per sample using an In Cell analyzer 1000 (GE Healthcare). For MCF7 cells, coverslips were mounted using Vectashield mounting medium with DAPI (Vector Labs) and imaged using a Leica TCS SPE confocal fluorescence microscope. Total fluorescence intensity was determined using ImagePro Plus 5.0 software (Media Cybernetics). […]
# Cells were washed in phosphate-buffered saline (PBS), trypsinized and counted. […] Colonies were fixed using Carnoys fixture (75% v/v methanol, 25% v/v acetic acid, Fisher), stained with crystal violet (0.4% w/v in water), and counted using a ColCount automated colony counter (Oxford Optronics). Cell survival was calculated as a percentage of the untreated control. […]
smiles,measurement,value
CN(C(=O)CN1CCOCC1)c1ccc2sc3c(-c4cccc5c(=O)cc(N6CC7CCC(C6)O7)oc45)cccc3c2c1 [NU5455],"Fold potentiation of etoposide (LD80, SER80)",4.1 fold
